For 40 compounds, IC50 results are on record in patent US6949571B2, “1,2-dihydropyridine compounds, process for preparation of the same and use thereof” (Eisai Co., Ltd., priority 2000, dated 2005).

The assay concerns AMPA receptor.
The mark [1] stands for this setting: Table 2, suppression of AMPA-induced calcium influx into nerve cells.
The mark [2] stands for this setting: Table 1, primary culture of rat embryo cerebral cortex nerve cells, 2 μM AMPA, 1 μM MK-801.
Where [3] appears, read: Table 3, primary culture of rat embryo cerebral cortex nerve cells, 2 μM AMPA, 1 μM MK-801.

Where two headings read alike, the source gives them in different places.
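Also: primary rat embryonic cortical neurons grown on an astrocyte layer in 96-well plates, used after at least 8 to 10 days in culture, Fura2-AM fluorescence ratio at 340/380 nm excitation.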

As usually defined, the IC50 is the concentration that gives 50% inhibition. `N#Cc1ccccc1-c1cc(-c2ccccn2)cn(-c2cccc(OCc3ccccc3)c2)c1=O` [Example 276, 1-[3-(Benzyloxy)phenyl]-3-(2-cyanophenyl)-5-(2-pyridyl)-1,2-dihydropyridin-2-one]: the IC50 under setting [1] came to 1.9 µM. `N#Cc1ccccc1-c1cc(-c2ccccn2)cn(-c2ccc3ccccc3c2)c1=O` [Example 290, 3-(2-Cyanophenyl)-5-(2-pyridyl)-1-(2-naphthyl)-1,2-dihydropyridin-2-one]: the IC50 under setting [1] was determined as 0.2 µM. In turn, `COc1cncc(-n2cc(-c3ccccn3)cc(-c3ccccc3C#N)c2=O)c1` [Example 118, 3-(2-Cyanophenyl)-5-(2-pyridyl)-1-(3-methoxypyridin-5-yl)-1,2-dihydropyridin-2-one] showed an IC50 under setting [2] of 0.1 µM. Consider `CC(=O)c1cccc(-n2cc(-c3ccccn3)cc(-c3ccccc3C#N)c2=O)c1` [Example 277, 1-(3-Acetylphenyl)-3-(2-cyanophenyl)-5-(2-pyridyl)-1,2-dihydropyridin-2-one], for which the IC50 under setting [1] was 0.6 µM. In the case of `N#Cc1ccccc1-c1cc(-c2ncccc2O)cn(-c2ccccc2)c1=O` [Example 198, 3-(2-Cyanophenyl)-5-(3-hydroxypyridin-2-yl)-1-phenyl-1,2-dihydropyridin-2-one], the half-maximal inhibitory concentration (IC50) under setting [1] was 0.3 µM. As to `O=Cc1sccc1-c1cc(-c2ccccn2)cn(-c2cccnc2)c1=O` [Example 130, 3-(2-Formylthiophen-3-yl)-5-(2-pyridyl)-1-(3-pyridyl)-1,2-dihydropyridin-2-one], the concentration for half-maximal inhibition (IC50) under setting [2] was 0.9 µM. Compound `O=C(NC1CCCCC1)c1cc(-c2ccccn2)cn(-c2ccccc2)c1=O` [Example 344, 3-Cyclohexylaminocarbonyl-5-(2-pyridyl)-1-phenyl-1,2-dihydropyridin-2-one] showed a half-inhibitory concentration (IC50) under setting [3] of 4.7 µM. In the case of `O=c1c(C2CCCCC2)cc(-c2ccccn2)cn1-c1ccccc1` [Example 192, 3-Cyclohexyl-5-(2-pyridyl)-1-phenyl-1,2-dihydropyridin-2-one], the IC50 under setting [1] was found to be 1.1 µM. As for `Cc1nc(-c2ccccc2-c2cc(-c3ccccn3)cn(-c3ccccc3)c2=O)no1` [Example 193, 3-[2-(5-Methyl-1,2,4-oxadiazol-3-yl)phenyl]-1-phenyl-5-(2-pyridyl)-1,2-dihydropyridin-2-one], the IC50 under setting [1] turned out to be 0.4 µM.

As to `N#Cc1ccccc1-c1cc(-c2nccs2)cn(-c2ccccc2)c1=O` [Example 201, 3-(2-Cyanophenyl)-1-phenyl-5-(2-thiazoyl)-1,2-dihydropyridin-2-one], the IC50 under setting [1] was 0.2 µM. With `N#Cc1ccccc1-c1cc(-c2ccccn2)cn(-c2ccc(N)cc2)c1=O` [Example 215, 1-(4-Aminophenyl)-3-(2-cyanophenyl)-5-(2-pyridyl)-1,2-dihydropyridin-2-one], the half-maximal inhibitory concentration (IC50) under setting [1] was determined as 0.1 µM.

Turning to `CC(C)(C)NS(=O)(=O)c1ccc(-c2cc(-c3ccccn3)cn(-c3ccccc3)c2=O)cc1` [Example 278, 3-[4-(tert-Butylaminosulfonyl)phenyl]-1-phenyl-5-(2-pyridyl)-1,2-dihydropyridin-2-one], under setting [1], the IC50 came to 2.8 µM. Compound `O=c1c(-c2nc3ccccc3n2-c2ccncc2)cc(-c2ccccn2)cn1-c1ccccc1` [Example 356, 3-[1-(Pyridin-4-yl)benzimidazol-2-yl]-5-(2-pyridyl)-1-phenyl-1,2-dihydropyridin-2-one] had a concentration for half-maximal inhibition (IC50) under setting [3] of 2.1 µM. Consider `COc1ccc(-c2cc(-c3ccccc3C#N)c(=O)n(-c3ccccc3)c2)cc1OC` [Example 43, 3-(2-Cyanophenyl)-5-(3,4-dimethoxyphenyl)-1-phenyl-1,2-dihydropyridin-2-one], for which, under setting [2], the IC50 was 0.5 µM. `O=c1c(-c2ccsc2-c2cnco2)cc(-c2ccccn2)cn1-c1ccccc1` [Example 393, 3-[2-(5-Oxazolyl)thiophen-3-yl]-1-phenyl-5-(2-pyridyl)-1,2-dihydropyridin-2-one]: under setting [3], the IC50 is 0.3 µM. Under setting [3], `O=c1c(-c2ccccc2-c2cnco2)cc(-c2ccccn2)cn1-c1ccccc1` [Example 392, 3-[2-(5-oxazolyl)phenyl]-1-phenyl-5-(2-pyridyl)-1,2-dihydropyridin-2-one] yielded a 50% inhibitory concentration (IC50) of 0.1 µM. Still for that read-out and setting: then `Cc1ccc(-c2ccccc2)n1-c1cc(-c2ccccn2)cn(-c2ccccc2)c1=O` [Example 327, 3-(2-Methyl-5-phenylpyrrol-1-yl)-5-(2-pyridyl)-1-phenyl-1,2-dihydropyridin-2-one], with 8 µM. The compound `O=c1c(-c2ccc(Cl)cc2)cc(-c2ccccn2)cn1-c1ccccc1` [Example 66, 3-(4-Chlorophenyl)-5-(2-pyridyl)-1-phenyl-1,2-dihydropyridin-2-one] had an IC50 under setting [2] of 2.4 µM. Turning to `N#Cc1ccccc1-c1cc(-c2ccccn2)cn(-c2cccc(CN3CCCC3)c2)c1=O` [Example 250, 3-(2-Cyanophenyl)-1-[3-(pyrrolidinomethyl)phenyl]-5-(2-pyridyl)-1,2-dihydropyridin-2-one], the IC50 under setting [1] is 0.9 µM.

`CS(=O)(=O)Nc1ccccc1-c1cc(-c2ccccn2)cn(-c2ccccc2)c1=O` [Example 226, 3-[2-(Methylsulfonylamino)phenyl]-1-phenyl-5-(2-pyridyl)-1,2-dihydropyridin-2-one]: the IC50 under setting [1] amounted to 9.5 µM. For the compound `O=c1c(Nc2ccccc2)cc(-c2ccccn2)cn1-c1ccccc1` [Example 174, 3-Phenylamino-5-(2-pyridyl)-1-phenyl-1,2-dihydropyridin-2-one], the concentration for half-maximal inhibition (IC50) under setting [1] was found to be 3.3 µM. As for `O=c1c(-c2nc3ccc(Cl)cc3[nH]2)cc(-c2ccccn2)cn1-c1ccccc1` [Example 355, 3-(6-Chloro-1H-benzimidazol-2-yl)-5-(2-pyridyl)-1-phenyl-1,2-dihydropyridin-2-one], the half-maximal inhibitory concentration (IC50) under setting [3] came to 0.2 µM. Regarding `Cn1cccc2nc(-c3cc(-c4ccccc4C#N)c(=O)n(-c4ccccc4)c3)nc1-2` [Example 388, 3-(2-Cyanophenyl)-5-(4-methyl-imidazo[4.5-b]pyridin-2-yl)-1-phenyl-1,2-dihydropyridin-2-one], half-maximal inhibition under setting [3] (IC50) required 2.9 µM. `N#Cc1ccccc1-c1cc(-c2ccccc2[N+](=O)[O-])cn(-c2ccccc2)c1=O` [Example 1, 3-(2-Cyanophenyl)-5-(2-nitrophenyl)-1-phenyl-1,2-dihydropyridin-2-one] had a concentration for half-maximal inhibition (IC50) under setting [2] of 0.8 µM. Consider `O=c1c(-c2cccnc2F)cc(-c2ccccn2)cn1-c1cccc(F)c1` [Example 88, 3-(2-Fluoro-3-pyridyl)-5-(2-pyridyl)-1-(3-fluorophenyl)-1,2-dihydropyridin-2-one], for which the 50% inhibitory concentration (IC50) under setting [2] amounted to 0.3 µM.

`N#Cc1ccccc1-c1cc(-c2ccccn2)cn(-c2cccc(OCCN3CCOCC3)c2)c1=O` [Example 245, 3-(2-Cyanophenyl)-1-[3-(morpholinoethoxy)phenyl]-5-(2-pyridyl)-1,2-dihydropyridin-2-one]: the concentration for half-maximal inhibition (IC50) under setting [1] was found to be 1.2 µM. Turning to `CCSc1ccc(-n2cc(-c3ccccn3)cc(-c3ccccc3C#N)c2=O)cn1` [Example 116, 3-(2-Cyanophenyl)-5-(2-pyridyl)-1-(2-ethylthiopyridin-5-yl)-1,2-dihydropyridin-2-one], the half-inhibitory concentration (IC50) under setting [2] was 0.2 µM. As for `N#Cc1ccccc1-c1cc(-c2ccccn2)cn(-c2ccc(OCCO)nc2)c1=O` [Example 119, 3-(2-Cyanophenyl)-5-(2-pyridyl)-1-(2-hydroxyethoxypyridin-5-yl)-1,2-dihydropyridin-2-one], under setting [2], the half-inhibitory concentration (IC50) came to 1.7 µM. Compound `COc1cccc(-n2cc(-c3ccccn3)cc(-c3ccccc3C#N)c2=O)c1` [Example 96, 3-(2-Cyanophenyl)-5-(2-pyridyl)-1-(3-methoxyphenyl)-1,2-dihydropyridin-2-one] returned a concentration for half-maximal inhibition (IC50) under setting [2] of 0.06 µM. Consider `N#Cc1ccccc1-c1cc(-c2ccncc2)cn(-c2ccccc2)c1=O` [Example 35, 3-(2-Cyanophenyl)-5-(4-pyridyl)-1-phenyl-1,2-dihydropyridin-2-one], for which 3.1 µM corresponded to half-maximal inhibition under setting [2] (IC50). `CC(=O)N1CCC(Oc2cccc(-n3cc(-c4ccccn4)cc(-c4ccccc4C#N)c3=O)c2)CC1` [Example 333, 1-[3-(N-acetylpiperidin-4-yl-oxy)phenyl]-3-(2-cyanophenyl)-5-(2-pyridyl)-1,2-dihydropyridin-2-one]: under setting [3], the midpoint of inhibition, the IC50, lay at 0.3 µM. On to `O=C(NC12CC3CC(CC(C3)C1)C2)c1cc(-c2ccccn2)cn(-c2ccccc2)c1=O` [Example 346, 3-(1-Adamantylaminocarbonyl)-5-(2-pyridyl)-1-phenyl-1,2-dihydropyridin-2-one], for which the IC50 under setting [3] is 3.7 µM. For `O=c1c(-c2ccncn2)cc(-c2ccccn2)cn1-c1ccccc1` [Example 256, 1-Phenyl-3-(4-pyrimidinyl)-5-(2-pyridyl)-1,2-dihydropyridin-2-one], under setting [1], the IC50 was found to be 1.2 µM.

As for `N#Cc1ccccc1-c1cc(-c2ccccn2)cn(-c2cccc([N+](=O)[O-])c2)c1=O` [Example 8, 3-(2-Cyanophenyl)-5-(2-pyridyl)-1-(3-nitrophenyl)-1,2-dihydropyridin-2-one], the concentration for half-maximal inhibition (IC50) under setting [2] came to 0.1 µM.

Turning to `O=c1c(C23CC4CC(CC(C4)C2)C3)cc(-c2ccccn2)cn1-c1ccccc1` [Example 178, 3-(1-Adamantyl)-5-(2-pyridyl)-1-phenyl-1,2-dihydropyridin-2-one], the 50% inhibitory concentration (IC50) under setting [1] stood at 2 µM. As for `O=c1c(-c2cccc3cccnc23)cc(-c2ccccn2)cn1-c1ccccc1` [Example 282, 3-(8-Quinolinyl)-5-(2-pyridyl)-1-phenyl-1,2-dihydropyridin-2-one], the concentration for half-maximal inhibition (IC50) under setting [1] stood at 9 µM. In the case of `N#Cc1ccccc1-c1cc(-c2ccc(O)cn2)cn(-c2ccccc2)c1=O` [Example 163, 3-(2-Cyanophenyl)-5-(5-hydroxypyridin-2-yl)-1-phenyl-1,2-dihydropyridin-2-one], under setting [1], the IC50 came to 8.2 µM. As for `O=c1c(Sc2ccc(Cl)cc2)cc(-c2ccccn2)cn1-c1ccccc1` [Example 188, 3-(4-Chlorophenylthio)-5-(2-pyridyl)-1-phenyl-1,2-dihydropyridin-2-one], the half-maximal inhibitory concentration (IC50) under setting [1] was 8.5 µM. As for `N#Cc1ccccc1-c1cc(-c2ccccn2)cn(-c2cncc(COCc3ccccc3)c2)c1=O` [Example 115, 3-(2-Cyanophenyl)-5-(2-pyridyl)-1-(3-benzyloxymethylpyridin-5-yl)-1,2-dihydropyridin-2-one], the concentration for half-maximal inhibition (IC50) under setting [2] stood at 0.06 µM. Take `O=c1c(-n2cccc2)cc(-c2ccccn2)cn1-c1ccccc1` [Example 320, 3-(Pyrrol-1-yl)-5-(2-pyridyl)-1-phenyl-1,2-dihydropyridin-2-one]: inhibition under setting [3] was half-maximal at 2.3 µM (IC50).
